From patent US8563567B2, “Substituted heterocyclic compounds” (ArQule, Inc., priority 2009, dated 2013)
Counter-ions that a name gives are not always drawn.

Tests used:
FGFR2 (N549H) = target: T1, FGFR2 (N549H) (Homo sapiens, UniProt P21802, N549H); test: FGFR2 kinase activity assay (fluorescent ELISA); assay type: biochemical
T1 construct: purchased Millipore 14-742
Experimental: The enzymatic assays described herein are conducted according to the following procedures from commercially available reagents. In one, non limiting, example, a fluorescent ELISA assay is used to identify and characterize inhibitors of FGFR2 kinase as described herein. This heterogeneous assay utilizes a biotinylated peptide with a tyrosine motif as a substrate and an anti-phospho-tyrosine antibody to measure phosphorylation of the substrate. The reaction is initiated by adding the test compound, 37 μM Pyk2 substrate (Midwest Biotech, Cat. # MBT2383), 12.5 μM ATP (Roche, Cat. #11 140 965 001) and 0.5 μM FGFR2 enzyme (Millipore, Cat. #14-742) sequentially to a non-binding polypropylene V-well plate. All reagents are in an assay buffer consisting of: 50 mM Tris-HCL, 0.02 mg/ml BSA, 10 mM MgCl2, 0.1 mM Na3VO4, 1 mM EGTA, 75 μM ATP, 0.01% NP-40, 2 mM DTT and 10% glycerol. The reaction is incubated for 60 minutes. As the reaction proceeds, FGFR2 phosphorylates tyrosines in the peptide. The reaction mixture is then moved to a blocked streptavidin-coated Nunc Maxisorb plate (coated with 100 ng streptavidin from Pierce (Cat. #15-124) per well), allowing for the capture of the biotinylated peptide. Peptides are captured for 30 minutes at room temperature, the phosphorylation of peptides continues during this phase. The reaction is stopped by washing the streptavidin-coated plate 6 times with TBST. Phosphorylated peptide is detected by adding anti-phospho-tyrosine antibody (Cell Signaling, Cat. #9411, diluted 1:3000) to the streptavidin-coated plate. Unbound anti-phospho-tyrosine antibody is removed by washing the streptavidin-coated plate 6 times with TBST. Secondary detection is performed using alkaline phosphatase tagged goat anti-mouse antibody (Pierce, Cat. #31320, diluted 1:4000) for one hour. Unbound secondary antibody is removed by washing the streptavidin-coated plate 6 times with TBST. The fluorescent readout is initiated by adding to the streptavidin-coated plate Promega Attophos substrate (Promega, Cat. # S1000, dilution=6 mg/10 ml), which, when dephosphorylated by alkaline phosphatase, emits a fluorescent signal of 595 nm in wavelength when excited by a signal of 400 nm in wavelength. The reading of the 595 nm signal is done on the Perkin Elmer Envision system. Compounds which prevent FGFR2 from phosphorylating the peptide result in a lower fluorescent signal. The 595 nm fluorescent signal is directly proportional to the activity of FGFR2. Thus, the inhibition of FGFR2 by compounds is monitored by the decrease in the 595 nm fluorescent signal.

Abl (T315I) = Abl (T315I) (Homo sapiens, UniProt P00519, T315I); test: Abl kinase activity assay (fluorescent ELISA, AblTide substrate); assay type: biochemical
Experimental: The disclosed compounds were assayed for their ability to inhibit the activity of ABL kinase. Nunc Maxisorb plates are coated with streptavidin by overnight incubation with 100 μL per well of 1 μg/mL streptavidin in DPBS. Prior to the start of the experiment, the plates are washed with TBST (3×200 μL) and blocked for at least 3 hours by adding 150 μL of 5% BSA/TBST. The plates are washed with TBST (3×200 μL/well) and left dry immediately before the capture step.
The test articles and controls (Gleevec) are prepared using the following assay buffer @ 10× desired final concentration (50 mM Tris pH 7.0, 0.02 mg/ml BSA, 10 mM MgCl2, 0.1 mM Na3VO4, 1 mM EGTA, 0.01% NP-40, 1 mM DTT in 10% glycerol/water). In a reaction plate are added rapidly 5 μL test article (or control) and 30 μL ABL or ABL T315I (0.089 nM final concentration, in the above buffer). The plate is incubated for 20 minutes. To the reaction plate is added ATP (100 μM final concentration) and AblTide (128 nM final concentration) in a volume of 15 μL. The plate is incubated at room temperature for one hour.
From the reaction plate, 40 μL is transferred to the streptavidin coated plate. The capture plate is incubated at room temperature for 30 minutes then washed 3× with TBST. To the capture plate is added 100 μL/well of Cell Signaling anti-phospho tyrosine at a dilution of 1:3000 in 2% BSA/TBST. The plate is incubated for two hours at room temperature then washed 3× with TBST. To the capture plate is added 100 μL/well of Alkaline Phosphatase Tagged Goat anti Mouse Antibody at a dilution of 1:4000 in 2% BSA/TBST. The plate is incubated for one hour at room temperature then washed 3× with TBST.
The fluorescent readout was initiated by the addition of 100 μL/well of Attophos reagent (6 mg/10 mL). The reading was done on the Perkin Elmer Envision system.

MDA-MB-231 = test: MTS assay, MDA-MB-231; assay type: cell-based; conditions: Homo sapiens, MDA-MB-231, 72 h
Experimental: (§1) Cells were maintained at 37° C., 5% CO2 in RPMI media supplemented with 1% fetal bovine serum, penicillin/streptomycin and fungizone (Invitrogen). Cells were seeded into 96-well tissue culture plates at 3000 per well and cultured at 37° C. for 18 h. Test compounds were dissolved and diluted to 300× in DMSO then diluted 1:40 in DMEM. Cells were incubated with test compounds for 72 hours followed by incubation with tetrazolium compound (3-(4,5-dimethylthiazol-2-yl)-5-(3-carboxymethoxyphenyl)-2-(4-sulfophenyl)-2H-tetrazolium, inner salt; MTS) and the electron coupling reagent, phenazine methosulfate (PMS) for 4 hours. […] The ability of compounds to inhibit cell growth in this assay is correlated with the reduction of dehydrogenase enzyme activity found in metabolically active cells. The measurement of the absorbance of the formazan was assessed using an ENVISION™ (Perkin Elmer) microplate reader at 492 nm. The calculated IC50 value is the concentration of the test compound that causes a 50% decrease in the absorbance.

DLD-1 = test: MTS assay, DLD-1; assay type: cell-based; conditions: Homo sapiens, DLD-1, 72 h
Experimental: as §1

T1 sequence (P21802 22-821 N549H): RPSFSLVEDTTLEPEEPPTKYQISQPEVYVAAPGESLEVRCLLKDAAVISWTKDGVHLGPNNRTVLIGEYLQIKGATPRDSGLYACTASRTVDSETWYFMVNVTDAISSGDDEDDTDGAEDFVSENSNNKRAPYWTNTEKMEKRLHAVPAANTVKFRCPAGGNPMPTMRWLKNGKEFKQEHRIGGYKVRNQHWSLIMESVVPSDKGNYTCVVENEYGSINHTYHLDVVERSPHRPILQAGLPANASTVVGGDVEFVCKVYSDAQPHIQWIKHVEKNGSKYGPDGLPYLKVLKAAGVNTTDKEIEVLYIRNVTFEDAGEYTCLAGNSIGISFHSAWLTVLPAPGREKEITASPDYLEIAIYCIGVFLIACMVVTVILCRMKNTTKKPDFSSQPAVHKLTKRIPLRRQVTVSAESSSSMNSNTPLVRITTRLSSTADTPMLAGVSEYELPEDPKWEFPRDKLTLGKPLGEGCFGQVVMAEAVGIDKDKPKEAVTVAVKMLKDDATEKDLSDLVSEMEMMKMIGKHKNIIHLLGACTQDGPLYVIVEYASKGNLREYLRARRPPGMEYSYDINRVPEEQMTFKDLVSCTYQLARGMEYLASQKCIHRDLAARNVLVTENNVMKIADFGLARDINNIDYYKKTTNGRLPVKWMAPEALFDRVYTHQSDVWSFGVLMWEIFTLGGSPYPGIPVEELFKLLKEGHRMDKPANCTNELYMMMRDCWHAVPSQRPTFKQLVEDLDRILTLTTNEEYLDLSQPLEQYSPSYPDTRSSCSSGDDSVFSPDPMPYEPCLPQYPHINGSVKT

SMILES	melting point [°C]	also measured
Cl.c1cc2c3c(c1)c(-c1ccnc(NCC4CCNCC4)n1)cn3CCC2	192 to 194	–
Cl.c1cc2c3c(c1)c(-c1nnnn1C1CCNCC1)cn3CCC2	198 to 200	–
CCOC(=O)CNC(=O)N1CCC(CNc2nccc(-c3cn4c5c(cccc35)CCC4)n2)CC1 (as salt: trifluoroacetate) [Compound 34, ethyl 2-(4-((4-(5,6-dihydro-4H-pyrrolo[3,2,1-ij]quinolin-1-yl)pyrimidin-2-ylamino)methyl)piperidine-1-carboxamido)acetate]	170 to 172	–
O=S(=O)(c1ccc(Cl)cc1)N1CCC(CNc2nccc(-c3cn4c5c(cccc35)CCC4)n2)CC1 (as salt: trifluoroacetate) [Compound 35, N-((1-(4-chlorophenylsulfonyl)piperidin-4-yl)methyl)-4-(5,6-dihydro-4H-pyrrolo[3,2,1-ij]quinolin-1-yl)pyrimidin-2-amine]	140 to 142	–
CC(C)(C)C(=O)N1CCC(CNc2nccc(-c3cn4c5c(cccc35)CCC4)n2)CC1 (as salt: trifluoroacetate) [Compound 36, 1-(4-((4-(5,6-dihydro-4H-pyrrolo[3,2,1-ij]quinolin-1-yl)pyrimidin-2-ylamino)methyl)piperidin-1-yl)-2,2-dimethylpropan-1-one]	170 to 172	–
O=c1[nH][nH]c(-c2ccc3ccccc3c2)c1-c1cn2c3c(cccc13)CCC2 [Compound 13, 4-(5,6-dihydro-4H-pyrrolo[3,2,1-ij]quinolin-1-yl)-5-(2-naphthyl)-1,2-dihydro-3H-pyrazol-3-one]	–	inhibition at 30 µM (FGFR2 (N549H)): 94%; inhibition at 10 µM (Abl (T315I)): 37%; inhibition at 10 µM (MDA-MB-231): 46%; inhibition at 10 µM (DLD-1): 61%
